Source: patent publication US9828352B2, “Phenyl carbamates and their use as inhibitors of the fatty acid amide hydrolase (FAAH) enzyme and modulators of the D3 dopamine receptor (D3DR)” (FONDAZIONE ISTITUTO ITALIANO DI TECNOLOGIA, priority 2013, dated 2017)

Columns and labels:
rat FAAH = biological target: T1, rat FAAH (Rattus norvegicus, UniProt P97612); experiment: Rat Fatty Acid Amide Hydrolase (FAAH) assay, rat brain homogenate, [3H]-anandamide; format: biochemical; conditions: 3 separate experiments, each in duplicate
T1 construct: from tissue; host or cells: male Sprague Dawley rat brain, total homogenate
T1 sequence (P97612 1-579): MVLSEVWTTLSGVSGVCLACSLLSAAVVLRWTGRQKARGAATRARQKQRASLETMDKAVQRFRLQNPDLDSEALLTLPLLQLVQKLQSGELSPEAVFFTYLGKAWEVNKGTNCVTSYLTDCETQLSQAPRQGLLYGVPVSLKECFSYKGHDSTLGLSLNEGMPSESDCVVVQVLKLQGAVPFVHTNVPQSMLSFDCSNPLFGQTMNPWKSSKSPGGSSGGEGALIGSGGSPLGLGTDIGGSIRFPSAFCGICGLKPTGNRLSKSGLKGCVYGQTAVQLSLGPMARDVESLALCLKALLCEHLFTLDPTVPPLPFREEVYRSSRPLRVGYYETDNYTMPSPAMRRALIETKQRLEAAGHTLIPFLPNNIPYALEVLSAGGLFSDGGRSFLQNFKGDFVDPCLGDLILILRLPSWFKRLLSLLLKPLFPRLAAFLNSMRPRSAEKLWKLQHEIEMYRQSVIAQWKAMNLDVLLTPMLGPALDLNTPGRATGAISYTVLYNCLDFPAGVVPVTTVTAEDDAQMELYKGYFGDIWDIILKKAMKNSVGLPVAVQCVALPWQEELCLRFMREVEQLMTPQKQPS
Protocol: Rat Fatty Acid Amide Hydrolase (FAAH) Assay
Male Sprague Dawley rat brains were homogenized in a potter in 20 mM Tris-HCl pH7.4, 0.32M sucrose, protein concentration was measured and samples aliquot stored at −80° C. until use.
FAAH activity was measured using 50 μg of total rat brain homogenate pre-incubated for 10 minutes at 37° C. in 445.5 μL of assay buffer (50 mM Tris-HCl pH7.4, 0.05% Fatty acid-free BSA) with 4.5 μL of inhibitor at appropriate concentration in DMSO, or DMSO alone to measure FAAH total activity. The blank (no activity sample) was prepared with 445.5 μL of assay buffer and 4.5 μL of DMSO without the 50 μg of total rat brain homogenate.
After 10 minutes of pre-incubation, the reaction was started by the addition of 50 μL of substrate for 30 min at 37° C. The substrate is prepared in assay buffer in order to achieve the final concentration of 1 μM Arachidonoyl-ethanolamide (N.90050, Cayman Chemical) and 0.6 nM Anandamide [ethanolamine-1-^3H] (American Radiolabeled Chemicals Inc., ART.0626, 1 mCi/ml, specific activity 60 Ci/mmol).
The reaction was stopped by with the addition of cold 1:1 CHCl3/Methanol. After 10 minutes of centrifugation (845×g at 4° C.) 600 μL of the aqueous phase was transferred into scintillation vials previously filled with 3 mL of scintillation fluid (ULTIMA GOLD, Cat. 6013329, Perkin Elmer Inc.).
Radioactivity was measured by liquid scintillation counting (Microbeta2 Lumijet, Perkin Elmer Inc.).
(§1) EC50 or IC50 values (concentrations causing half-maximal response or inhibition of control agonist response) were determined by non-linear regression analysis of the Log [concentration]/response curves generated with mean replicate values using a four parameter Hill equation curve fitting with GraphPad Prism 5 (GraphPad Software Inc., CA—USA).

human-D3R = biological target: T2, human-D3R (Homo sapiens, UniProt P35462); experiment: D3 Dopamine Receptor (D3dR) cellular assay, cAMP HTRF functional assay in human-D3R expressing CHO cells; format: cell-based
T2 construct: expressed in transfected cells; host or cells: CHO cell line stably transfected with human D3R
Protocol: D3 Dopamine Receptor (D3dR) Cellular Assay
Activity on D3R was tested with a cAMP functional assay on a stably transfected human-D3R expressing CHO cell line. On the day of the assay performance the cells were washed twice with PBS (w/o calcium and magnesium) and dislodged with a cell scraper, transferred to PBS, centrifuged and re-suspended in HBSS (w/o calcium and magnesium), supplemented with 1 g/L glucose and […] IBMX. The cell suspension was seeded on a 384 well plate (Greiner) and the assay was performed by adding compounds either test compounds alone (for agonist activity), or with test compound after a pre-incubation with 10 nM Dopamine as a stimulant (for antagonistic activity). After incubation (30 min at RT) the cell stimulation was stopped by adding the detecting reagents (cAMP-XL665 and anti-cAMP cryptate) diluted in lysis buffer. The signal was quantified by Homogenous Time-Resolved Fluorescence (HTRF) on a Perkin Elmer Envision plate reader after one hour of incubation at RT.
as §1

human FAAH-1 = biological target: T3, human FAAH-1 (Homo sapiens, UniProt O00519); experiment: Human recombinant Fatty Acid Amide Hydrolase-1 (FAAH-1) fluorescent assay, Hek293-hFAAH-1 membranes; format: biochemical; conditions: 3 separate experiments, each in triplicate
T3 construct: expressed in transfected cells; host or cells: Hek293 cells stably transfected with human FAAH-1; membrane preparation
T3 sequence (O00519 1-579): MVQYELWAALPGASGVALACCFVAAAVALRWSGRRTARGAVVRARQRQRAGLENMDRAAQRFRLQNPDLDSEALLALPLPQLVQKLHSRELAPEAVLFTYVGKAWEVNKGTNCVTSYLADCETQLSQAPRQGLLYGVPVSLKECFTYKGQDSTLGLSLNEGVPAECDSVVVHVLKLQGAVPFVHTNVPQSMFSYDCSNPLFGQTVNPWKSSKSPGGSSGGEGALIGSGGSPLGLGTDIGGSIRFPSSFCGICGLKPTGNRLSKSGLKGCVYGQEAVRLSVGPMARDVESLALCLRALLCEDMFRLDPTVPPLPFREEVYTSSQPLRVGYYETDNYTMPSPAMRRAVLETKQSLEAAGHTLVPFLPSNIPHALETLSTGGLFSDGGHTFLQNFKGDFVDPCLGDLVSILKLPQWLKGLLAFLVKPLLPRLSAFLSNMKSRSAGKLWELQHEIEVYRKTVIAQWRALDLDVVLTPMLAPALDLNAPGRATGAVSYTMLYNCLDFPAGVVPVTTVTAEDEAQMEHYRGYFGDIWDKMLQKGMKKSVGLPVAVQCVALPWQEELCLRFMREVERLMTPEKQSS
Protocol: Human Recombinant Fatty Acid Amide Hydrolase-1 (FAAH-1) Fluorescent Assay
Hek293 cells stably transfected with human FAAH-1 were maintained in DMEM containing 10% FBS, 1% pen/strep and 500 μg/mL G418 to maintain selective pressure. Cells were scraped off with cold PBS1× pH7.4 from plates and collected by centrifugation (500 g, 10 minutes, 4° C.); cells pellets were re-suspended in homogenizing buffer (20 mM Tris-HCl pH7.4, 0.32M sucrose), disrupted by sonication (10 pulses, 5 times) and centrifuged at 800×g for 15 minutes at 4° C.; the resultant supernatants collected were then centrifuged at 105,000×g for 1 hr at 4° C. and membranes pellets were re-suspended in PBS1× pH7.4.
Protein concentration was measured and samples aliquot stored at −80° C. until use.
The blank (no activity) was prepared using 180 μL of assay buffer without Hek293-hFAAH-1 membrane preparation and 10 μL of DMSO.
After 50 minutes of pre-incubation of compounds with the enzyme at 37° C., the reaction was started by the addition of 10 μL of substrate (AMC Arachidonyl Amide, N.10005098, Cayman Chemical) for 30 min at 37° C. The substrate is prepared in Ethanol in order to achieve the final concentration of 2 μM.
Fluorescence was detected with Tecan Infinite M200 nanoquant (Tecan Group Ltd.) at an excitation wavelength 350 nm and an emission wavelength 460 nm.
as §1

T2 sequence (P35462 whole entry): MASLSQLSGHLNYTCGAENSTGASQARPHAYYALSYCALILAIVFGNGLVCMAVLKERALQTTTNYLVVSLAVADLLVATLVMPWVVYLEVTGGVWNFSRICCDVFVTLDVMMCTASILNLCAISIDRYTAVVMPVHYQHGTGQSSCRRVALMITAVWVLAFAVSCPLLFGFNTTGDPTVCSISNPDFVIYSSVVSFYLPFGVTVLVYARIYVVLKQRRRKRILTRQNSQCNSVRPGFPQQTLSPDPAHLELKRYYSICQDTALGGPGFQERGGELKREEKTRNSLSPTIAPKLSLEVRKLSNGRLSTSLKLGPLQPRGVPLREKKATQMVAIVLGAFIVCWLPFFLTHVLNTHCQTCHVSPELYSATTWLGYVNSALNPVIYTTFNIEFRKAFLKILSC

| Compound | IC50 (rat FAAH) [nM] | Emax (human-D3R; CHO, 0.5 h, % of 300 nM Dopamine response, read-out: Dopamine D3 % of Agonist Activity) [%] | EC50 (human-D3R; cAMP assay, CHO human-D3R, one experiment in duplicate) [nM] | IC50 (human FAAH-1) [nM] |
| --- | --- | --- | --- | --- |
| COc1ccccc1N1CCN(CCCCNC(=O)Oc2cccc(-c3cccc(C(N)=O)c3)c2)CC1 [Example 1, [3-(3-carbamoylphenyl)phenyl] N-[4-[4-(2-methoxyphenyl)piperazin-1-yl]butyl] carbamate] | 0.94 | – | – | – |
| NC(=O)c1cccc(-c2cccc(OC(=O)NCCCCN3CCN(c4cccc(Cl)c4Cl)CC3)c2)c1 [Example 2, [3-(3-carbamoylphenyl)phenyl] N-[4-[4-(2,3-dichlorophenyl)piperazin-1-yl]butyl] carbamate] | 0.3 | – | – | – |
| NC(=O)c1cccc(-c2cccc(OC(=O)NCCCN3CCN(c4cccc(Cl)c4Cl)CC3)c2)c1 [Example 3, [3-(3-carbamoylphenyl)phenyl] N-[3-[4-(2,3-dichlorophenyl)piperazin-1-yl]propyl]carbamate] | 0.11 | – | – | – |
| NC(=O)c1cccc(-c2cccc(OC(=O)NCCCN3CCN(c4ccccc4)CC3)c2)c1 [Example 4, [3-(3-carbamoylphenyl)phenyl] N-[3-(4-phenylpiperazin-1-yl)propyl]carbamate] | 0.32 | – | – | – |
| O=C(NCCCN1CCN(c2ccccc2)CC1)Oc1cccc(-c2ccccc2)c1 [Example 5, (3-phenylphenyl) N-[3-(4-phenylpiperazin-1-yl)propyl]carbamate] | 3 | 89.7 | 13 | 3.4 |
| NC(=O)c1cccc(-c2ccc(OC(=O)NCCCN3CCN(c4cccc(Cl)c4Cl)CC3)cc2)c1 [Example 6, [4-(3-carbamoylphenyl)phenyl] N-[3-[4-(2,3-dichlorophenyl)piperazin-1-yl]propyl]carbamate] | 1.5 | – | – | – |
| NC(=O)c1cccc(-c2ccc(OC(=O)NCCCCN3CCN(c4cccc(Cl)c4Cl)CC3)cc2)c1 [Example 7, [4-(3-carbamoylphenyl)phenyl] N-[4-[4-(2,3-dichlorophenyl)piperazin-1-yl]butyl]carbamate] | 0.72 | – | – | – |
